Source: US20260007758A1, “SO[…]-2 RECEPTOR (SST2R) NON-PEPTIDE DRUG CONJUGATES AND USES THEREOF” (Crinetics Pharmaceuticals, Inc., priority 2024, published 2026)
pEC50: −log10 of the molar value.

Legend:
Format in all cases: cell-based
[1] = target: T1, human somatostatin receptor subtype 2 (Homo sapiens, UniProt P30874); experiment: Functional assay for SSTR2 agonists (HTRF cAMP); details: CHO-K1 cells stably expressing human SST2; NKH477-stimulated cAMP; 20 min at 37 C; read-out: hSST2 cAMP Avg EC50
T1 construct: expressed in transfected cells
T1 sequence (P30874 whole entry): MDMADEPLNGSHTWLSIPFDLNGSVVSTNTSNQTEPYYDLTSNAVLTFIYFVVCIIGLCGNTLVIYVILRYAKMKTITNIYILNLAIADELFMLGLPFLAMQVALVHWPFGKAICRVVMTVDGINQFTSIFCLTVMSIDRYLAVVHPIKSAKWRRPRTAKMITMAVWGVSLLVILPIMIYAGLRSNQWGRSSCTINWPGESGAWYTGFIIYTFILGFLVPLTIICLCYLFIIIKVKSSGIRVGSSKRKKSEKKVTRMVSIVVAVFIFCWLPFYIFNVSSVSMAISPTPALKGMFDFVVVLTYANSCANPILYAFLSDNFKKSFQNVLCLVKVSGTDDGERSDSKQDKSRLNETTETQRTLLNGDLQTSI
Summary of the method: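 Agonist activity read as fall in intracellular cAMP: HTRF 665/620 nm ratio regressed to a cAMP standard curve, EC50 fitted. Stable human SSTR2 CHO-K1 cells exposed 20 min at 37 °C to compound, final concentrations typically 0-10,000 nM.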

SST2 = target: T2, SST2 (Homo sapiens, UniProt P30874); experiment: PathHunter CHO-K1 SST2 Internalization Assay; details: PathHunter CHO-K1 SST2 cells; 90 min at 37 C; luminescence; read-out: Internalization EC50
T2 construct: host or cells: PathHunter CHO-K1 SST2 cells
T2 sequence (P30874 whole entry): as above
Summary of the method: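 Four-parameter nonlinear fits of background-corrected luminescence (duplicate means) gave IC50s. NDCs were serially diluted 1:3 over 11 points from a 10 uM final top concentration and incubated 90 min at 37 C with human SST2 CHO-K1 cells plated 48 h earlier at 2500/well. Beta-Glo read-out developed 60 min at RT.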

[2] = system: NCI-H524 human small cell lung cancer cells; experiment: H524 assay: inhibition of cell proliferation (CellTiter Glo); details: 2 h treatment, washout, additional 70 h incubation
Summary of the method: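 Proliferation was measured by CellTiter Glo 70 h after a washout that followed a 2 h pulse of NDC. Doses were an 11-point, two-fold dilution series from 1 uM. IC50 was fitted with a four-parameter model to luminescence-based % inhibition relative to control cells.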

SMILES	pEC50 [1]	pEC50 (SST2)	pEC50 [2]
CC[C@H](C)[C@@H]([C@@H](CC(=O)N1CCC[C@H]1[C@H](OC)[C@@H](C)C(=O)N[C@H](C)[C@@H](O)c1ccccc1)OC)N(C)C(=O)[C@@H](NC(=O)[C@H](C(C)C)N(C)C(=O)OCc1ccc(NC(=O)[C@H](CCCNC(N)=O)NC(=O)[C@@H](NC(=O)CCOCCC(=O)N(C)CC(=O)NCCNc2ncc(-c3cc(C)cc(F)c3)c(N3CCC(N)CC3)c2-c2nc3ccc(Cl)cc3[nH]2)C(C)C)c(O[C@@H]2O[C@H](C(=O)NCCN(C)C)[C@@H](O)[C@H](O)[C@H]2O)c1)C(C)C [Compound 215]	9.85	8.11	8.30
CC[C@H](C)[C@@H]([C@@H](CC(=O)N1CCC[C@H]1[C@H](OC)[C@@H](C)C(=O)N[C@H](C)[C@@H](O)c1ccccc1)OC)N(C)C(=O)[C@@H](NC(=O)[C@H](C(C)C)N(C)C(=O)OCc1ccc(NC(=O)[C@H](CCCNC(N)=O)NC(=O)[C@@H](NC(=O)CCOCCC(=O)NCCNc2ncc(-c3cc(C)cc(F)c3)c(N3CCC(N)CC3)c2-c2nc3ccc(Cl)cc3[nH]2)C(C)C)c(O[C@@H]2O[C@H](C(=O)NCCNC(=O)CCCCCO[PH](=O)OC3CCC(c4ccccc4)(c4ccccc4)CC3)[C@@H](O)[C@H](O)[C@H]2O)c1)C(C)C (stereo partly drawn) [Compound 233]	9.00	7.74	6.30
CC[C@H](C)[C@@H]([C@@H](CC(=O)N1CCC[C@H]1[C@H](OC)[C@@H](C)C(=O)N[C@H](C)[C@@H](O)c1ccccc1)OC)N(C)C(=O)[C@@H](NC(=O)[C@H](C(C)C)N(C)C(=O)OCc1ccc(NC(=O)[C@H](CCCNC(N)=O)NC(=O)[C@@H](NC(=O)[C@H](Cc2c[nH]cn2)NC(=O)CCOCCC(=O)NCCNc2ncc(-c3cc(C)cc(F)c3)c(N3CCC(N)CC3)c2-c2nc3ccc(Cl)cc3[nH]2)C(C)C)c(O[C@@H]2C[C@H](C(=O)O)[C@@H](O)[C@H](O)[C@H]2O)c1)C(C)C [Compound 243]	10.09	8.49	7.77
CC[C@H](C)[C@@H]([C@@H](CC(=O)N1CCC[C@H]1[C@H](OC)[C@@H](C)C(=O)N[C@H](C)[C@@H](O)c1ccccc1)OC)N(C)C(=O)[C@@H](NC(=O)[C@H](C(C)C)N(C)C(=O)OCc1ccc(NC(=O)[C@H](CCCNC(N)=O)NC(=O)[C@@H](NC(=O)CCOCCC(=O)NCCNc2ncc(-c3cc(C)cc(F)c3)c(N3CCC(N)CC3)c2-c2nc3ccc(Cl)cc3[nH]2)C(C)C)c(O[C@@H]2O[C@H](C(=O)N(C)C)[C@@H](O)[C@H](O)[C@H]2O)c1)C(C)C [Compound 217]	10.03	8.22	8.16
CC[C@H](C)[C@@H]([C@@H](CC(=O)N1CCC[C@H]1[C@H](OC)[C@@H](C)C(=O)N[C@H](C)[C@@H](O)c1ccccc1)OC)N(C)C(=O)[C@@H](NC(=O)[C@H](C(C)C)N(C)C(=O)OCc1ccc(NC(=O)[C@H](C)NC(=O)[C@@H](NC(=O)CCOCCC(=O)NCCNc2ncc(-c3cc(C)cc(F)c3)c(N3CCC(N)CC3)c2-c2nc3ccc(F)cc3[nH]2)C(C)C)c(O[C@@H]2O[C@H](C(=O)O)[C@@H](O)[C@H](O)[C@H]2O)c1)C(C)C [Compound 138]	10.14	8.36	7.70
CC[C@H](C)[C@@H]([C@@H](CC(=O)N1CCC[C@H]1[C@H](OC)[C@@H](C)C(=O)N[C@H](C)[C@@H](O)c1ccccc1)OC)N(C)C(=O)[C@@H](NC(=O)[C@H](C(C)C)N(C)C(=O)OCc1ccc(NC(=O)[C@H](CCCNC(N)=O)NC(=O)[C@@H](NC(=O)c2cc(NCCOCCC(=O)NCCNc3ncc(-c4cc(C)cc(F)c4)c(N4CCC(N)CC4)c3-c3nc4ccc(Cl)cc4[nH]3)cc(C(=O)NCCCC(=O)O)c2)C(C)C)cc1)C(C)C [Compound 146]	9.54	8.00	7.21
CC[C@H](C)[C@@H]([C@@H](CC(=O)N1CCC[C@H]1[C@H](OC)[C@@H](C)C(=O)N[C@H](C)[C@@H](O)c1ccccc1)OC)N(C)C(=O)[C@@H](NC(=O)[C@H](C(C)C)N(C)C(=O)OCc1ccc(NC(=O)[C@H](CCCNC(N)=O)NC(=O)[C@@H](NC(=O)c2cn(CCOCCC(=O)NCCNc3ncc(-c4cc(C)cc(F)c4)c(N4CCC(N)CC4)c3-c3nc4ccc(Cl)cc4[nH]3)nn2)C(C)C)cc1)C(C)C [Compound 142]	9.43	8.20	6.10
CC[C@H](C)[C@@H]([C@@H](CC(=O)N1CCC[C@H]1[C@H](OC)[C@@H](C)C(=O)N[C@H](C)[C@@H](O)c1ccccc1)OC)N(C)C(=O)[C@@H](NC(=O)[C@H](C(C)C)N(C)C(=O)OCc1ccc(NC(=O)[C@H](CCCNC(N)=O)NC(=O)[C@@H](NC(=O)[C@H](CCC(=O)O)NC(=O)CCOCCC(=O)NCCNc2ncc(-c3cc(C)cc(F)c3)c(N3CCC(N)CC3)c2-c2nc3ccc(Cl)cc3[nH]2)C(C)C)cc1C(=O)NCCNC)C(C)C [Compound 57]	9.51	8.18	6.00
CC[C@H](C)[C@@H]([C@@H](CC(=O)N1CCC[C@H]1[C@H](OC)[C@@H](C)C(=O)N[C@H](C)[C@@H](O)c1ccccc1)OC)N(C)C(=O)[C@@H](NC(=O)[C@H](C(C)C)N(C)C(=O)OCc1ccc(NC(=O)[C@H](CCCNC(N)=O)NC(=O)[C@@H](NC(=O)[C@H](CCC(=O)O)NC(=O)CCOCCC(=O)NCCNc2ncc(-c3cc(C)cc(F)c3)c(N3CC[C@H]4NCCC[C@@H]4C3)c2-c2nc3ccc(Cl)cc3[nH]2)C(C)C)cc1C(=O)NCCN)C(C)C [Compound 80]	6.74	6.04	6.27
CC[C@H](C)[C@@H]([C@@H](CC(=O)N1CCC[C@H]1[C@H](OC)[C@@H](C)C(=O)N[C@H](C)[C@@H](O)c1ccccc1)OC)N(C)C(=O)[C@@H](NC(=O)[C@H](C(C)C)N(C)C(=O)OCc1ccc(NC(=O)[C@H](C)NC(=O)[C@@H](NC(=O)CCOCCC(=O)NCCNc2ncc(-c3cc(C)cc(F)c3)c(N3CCC(N)CC3)c2-c2cc3ccc(F)cc3[nH]2)C(C)C)c(O[C@@H]2O[C@H](C(=O)O)[C@@H](O)[C@H](O)[C@H]2O)c1)C(C)C [Compound 116]	9.72	7.85	7.68
CC[C@H](C)[C@@H]([C@@H](CC(=O)N1CCC[C@H]1[C@H](OC)[C@@H](C)C(=O)N[C@H](C)[C@@H](O)c1ccccc1)OC)N(C)C(=O)[C@@H](NC(=O)[C@H](C(C)C)N(C)C(=O)OCc1ccc(NC(=O)[C@H](CCCNC(N)=O)NC(=O)[C@@H](NC(=O)[C@H](CCC(N)=O)NC(=O)CCOCCC(=O)NCCNc2ncc(-c3cc(C)cc(F)c3)c(N3CCC(N)CC3)c2-c2nc3ccc(Cl)cc3[nH]2)C(C)C)cc1C(=O)O)C(C)C [Compound 5]	9.54	8.66	6.28
CC[C@H](C)[C@@H]([C@@H](CC(=O)N1CCC[C@H]1[C@H](OC)[C@@H](C)C(=O)N[C@H](C)[C@@H](O)c1ccccc1)OC)N(C)C(=O)[C@@H](NC(=O)[C@H](C(C)C)N(C)C(=O)OCc1ccc(NC(=O)[C@H](C)NC(=O)[C@@H](NC(=O)CCOCCC(=O)NCCNc2ncc(-c3cc(C)cc(F)c3)c(N3CCC(N)CC3)c2-c2nc3ccc(Cl)cc3[nH]2)C(C)C)c(O[C@@H]2O[C@H](C(N)=O)[C@@H](O)[C@H](O)[C@H]2O)c1)C(C)C [Compound 34]	9.92	8.36	8.80
